Laboratory results as given in patent US9040501B2, “Compositions and methods for treating cancer” (Eisai Inc., priority 2009, dated 2015).

Assays:
[1] = Stability in simulated gastric fluid at 37° C. (HPLC); assay type: physicochemical
From the text: […]. See Kararli, T. T. Comparison of the GI anatomy, physiology, and biochemistry of humans and commonly used laboratory animals. BioPharm & DrugDispos. 16:351-380, 1995, which is hereby wholly incorporated by reference. The gastric pH in fasted monkeys has been reported to have a similar range of 1-3. See Kondo, H. et al. Characteristics of the gastric pH profiles of unfed and fed cynomolgus monkeys as pharmaceutical product development subjects. BioPharm & DrugDispos. 24:45-51, 2003, which is hereby wholly incorporated by reference.
Materials: Simulated gastric fluid (SGF) was prepared by mixing the following into 100 mL of HPLC grade (or purified) water: 200 mg of sodium chloride and 1.87 mL of a 37.52% HCl stock solution.
The HPLC analyses were conducted using a Waters UPLC solvent delivery system with Corona CAD detection. The HPLC Column (Waters Atlantis HHS T3 2.1×100 mm, 1.8 um) was maintained at 40° C. and preequilibrated with a solution containing 98% water and 2% acetonitrile. The temperature controlled auto-sampler was maintained at 37° C. The flow rate for the Water/MeCN mobile phase was 0.65 mL/min, with a gradient following sample injection (5 μL) as follows: […]
The Water/MeCN mobile phase was applied to the column with the above described flow rate and gradient and the HPLC chromatograms were collected. After 3.5 minutes, the column was reequilibrated with 98% water/2% MeCN for 1.5 minutes.

[2] = tested on: A2780 human ovarian cancer xenograft; experiment: In vivo efficacy study in A2780 human ovarian cancer xenograft model; design: species or system female nude mice; details: qdx5 for two weeks
Experimental: Animals were dosed daily from Monday to Friday for two weeks.
Female nude mice (NU/NU, strain code 088, 6 weeks old, Charles River Laboratory) were implanted subcutaneously with 5×10^6 A2780 cancer cells per mouse. On day 13 when the tumors were approximately 150 mm^3, treatment started as described in Table 9.
Tumor volume and regressions were followed over time. Tumor volume was calculated by (length×width^2)/2. Note that a complete regression was defined as no measurable tumor for at least 3 consecutive measurements; while a partial regression was defined as tumor shrinkage to equal or less than 50% of original tumor volume for 3 consecutive measurements. Tumor growth delay (TGD) was defined as the median number of days for the control and treatment groups to grow to 342.14 mm^3. The average tumor volume on the first day of treatment (day 13) is 171.07 mm^3.

SMILES: O=C1NCC=CCN1[C@@H]1O[C@H](CO)[C@@H](O)C1(F)F [ER-876437, 1-((2R,4R,5R)-3,3-difluoro-4-hydroxy-5-(hydroxymethyl)tetrahydrofuran-2-yl)-3,4-dihydro-1H-1,3-diazepin-2(7H)-one]
- % ER-876437 (peak retention time: 2.90 min) ([1]; SGF at 37° C., analysis time 0:00:30): 85.88%
- % ER-876437 (peak retention time: 2.90 min) ([1]; SGF at 37° C., analysis time 0:06:08): 85.72%
- % ER-876437 (peak retention time: 2.90 min) ([1]; SGF at 37° C., analysis time 0:11:45): 86.46%
- % ER-876437 (peak retention time: 2.90 min) ([1]; SGF at 37° C., analysis time 0:17:24): 86.38%
- % ER-876437 (peak retention time: 2.90 min) ([1]; SGF at 37° C., analysis time 0:23:02): 83.22%
- % ER-876437 (peak retention time: 2.90 min) ([1]; SGF at 37° C., analysis time 0:28:39): 83.48%
- % ER-876437 (peak retention time: 2.90 min) ([1]; SGF at 37° C., analysis time 0:34:17): 83.80%
- % ER-876437 (peak retention time: 2.90 min) ([1]; SGF at 37° C., analysis time 0:39:54): 84.16%
- % ER-876437 (peak retention time: 2.90 min) ([1]; SGF at 37° C., analysis time 0:45:32): 82.62%
- % ER-876437 (peak retention time: 2.90 min) ([1]; SGF at 37° C., analysis time 0:51:10): 82.41%
- % ER-876437 (peak retention time: 2.90 min) ([1]; SGF at 37° C., analysis time 0:56:47): 82.45%
- % ER-876437 (peak retention time: 2.90 min) ([1]; SGF at 37° C., analysis time 1:02:26): 82.45%
- % ER-876437 (peak retention time: 2.90 min) ([1]; SGF at 37° C., analysis time 1:08:04): 82.55%
- % ER-876437 (peak retention time: 2.90 min) ([1]; SGF at 37° C., analysis time 1:13:41): 83.11%
- % ER-876437 (peak retention time: 2.90 min) ([1]; SGF at 37° C., analysis time 1:19:19): 81.82%
- % ER-876437 (peak retention time: 2.90 min) ([1]; SGF at 37° C., analysis time 1:24:56): 81.24%
- % ER-876437 (peak retention time: 2.90 min) ([1]; SGF at 37° C., analysis time 1:30:33): 79.20%
- % ER-876437 (peak retention time: 2.90 min) ([1]; SGF at 37° C., analysis time 1:36:10): 79.14%
- % ER-876437 (peak retention time: 2.90 min) ([1]; SGF at 37° C., analysis time 1:41:47): 78.47%
- % ER-876437 (peak retention time: 2.90 min) ([1]; SGF at 37° C., analysis time 1:47:24): 77.88%
- % ER-876437 (peak retention time: 2.90 min) ([1]; SGF at 37° C., analysis time 1:53:02): 78.29%
- % ER-876437 (peak retention time: 2.90 min) ([1]; SGF at 37° C., analysis time 1:58:39): 78.56%
- % ER-876437 (peak retention time: 2.90 min) ([1]; SGF at 37° C., analysis time 2:04:16): 77.21%
- % ER-876437 (peak retention time: 2.90 min) ([1]; SGF at 37° C., analysis time 2:21:12): 76.06%
- % ER-876437 (peak retention time: 2.90 min) ([1]; SGF at 37° C., analysis time 2:26:50): 77.34%
- % ER-876437 (peak retention time: 2.90 min) ([1]; SGF at 37° C., analysis time 2:49:21): 75.34%
- % ER-876437 (peak retention time: 2.90 min) ([1]; SGF at 37° C., analysis time 3:17:30): 72.37%
- % ER-876437 (peak retention time: 2.90 min) ([1]; SGF at 37° C., analysis time 3:51:16): 50.13%
- % ER-876437 (peak retention time: 2.90 min) ([1]; SGF at 37° C., analysis time 4:19:26): 51.88%
- % ER-876437 (peak retention time: 2.90 min) ([1]; SGF at 37° C., analysis time 4:47:38): 48.95%
- % ER-876437 (peak retention time: 2.90 min) ([1]; SGF at 37° C., analysis time 5:21:25): 45.19%
- % ER-876437 (peak retention time: 2.90 min) ([1]; SGF at 37° C., analysis time 5:49:35): 47.44%
- % ER-876437 (peak retention time: 2.90 min) ([1]; SGF at 37° C., analysis time 6:17:45): 44.94%
- % ER-876437 (peak retention time: 2.90 min) ([1]; SGF at 37° C., analysis time 6:51:31): 43.29%
- % ER-876437 (peak retention time: 2.90 min) ([1]; SGF at 37° C., analysis time 7:19:40): 41.85%
- % ER-876437 (peak retention time: 2.90 min) ([1]; SGF at 37° C., analysis time 7:47:22): 41.72%
- % ER-876437 (peak retention time: 2.90 min) ([1]; SGF at 37° C., analysis time 8:21:11): 36.89%
- % ER-876437 (peak retention time: 2.90 min) ([1]; SGF at 37° C., analysis time 8:49:19): 37.52%
- % ER-876437 (peak retention time: 2.90 min) ([1]; SGF at 37° C., analysis time 9:17:30): 36.34%
- % ER-876437 (peak retention time: 2.90 min) ([1]; SGF at 37° C., analysis time 9:51:17): 34.61%
- % ER-876437 (peak retention time: 2.90 min) ([1]; SGF at 37° C., analysis time 10:19:29): 31.94%
- % ER-876437 (peak retention time: 2.90 min) ([1]; SGF at 37° C., analysis time 10:47:39): 32.33%
- % ER-876437 (peak retention time: 2.90 min) ([1]; SGF at 37° C., analysis time 11:15:53): 29.85%
- % ER-876437 (peak retention time: 2.90 min) ([1]; SGF at 37° C., analysis time 11:49:44): 29.94%
- % ER-876437 (peak retention time: 2.90 min) ([1]; SGF at 37° C., analysis time 12:17:54): 27.99%
- % ER-876437 (peak retention time: 2.90 min) ([1]; SGF at 37° C., analysis time 12:46:10): 27.39%
- % ER-876437 (peak retention time: 2.90 min) ([1]; SGF at 37° C., analysis time 13:20:01): 26.14%
- % ER-876437 (peak retention time: 2.90 min) ([1]; analysis time 0:00:00, initial sample in water): 92.18%
- half-life ([1]; simulated gastric fluid (pH 1.45) at 37° C.): 4 to 6 h
- regressions or tumor free survivors at day 41 ([2]; gemcitabine 1 mg/kg PO alone or ER-876437 10 mg/kg PO alone): no regressions or tumor free survivors
- effect on tumor growth (FIG. 3) ([2]; gemcitabine 1 mg/kg PO and/or ER-876437 10 mg/kg PO (30 minutes prior)): no effect at all
- TGD (tumor growth delay) ([2]; gemcitabine 1 mg/kg PO and/or ER-876437 10 mg/kg PO (30 minutes prior), delay vs vehicle to reach 342.14 mm^3): 2 days
